Experimental findings from PubChem BioAssay AID1963597 (National Center for Advancing Translational Sciences (NCATS), 2024) are described below.

Usually half-life stands for the time needed for the level to fall by half in the phase considered.

The test system of the series is human liver microsomes, metabolic stability half-life. Description: NCATS Human Liver Microsomal (HLM) Stability Profiling. To be noted: higher = more stable; screened at 1 µM (by protocol). Put shortly:
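Substrate depletion (in vitro t1/2): 1 µM compound with 0.5 mg/mL microsomes and NADPH regenerating system, phosphate buffer pH 7.4, 37 °C. Sampled at 0, 5, 10, 15, 30, 60 min into cold acetonitrile with albendazole internal standard for MS quantification.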
A general note: Liver microsomes are a subcellular fraction often used to study metabolism.

On to `COc1cc2cc(CN3CCC(N(C)C)C3)c(-c3cccc(Cl)c3)nc2cc1OC` (stereo not given), for which the half-life is greater than 120 min.

Consider `Cc1ccc(Cl)c(OCC(O)CNC(C)(C)C)c1` (stereo not given), for which the half-life stood at 1.53 min.

With `C=CCN1CC[C@]23c4c5ccc(O)c4O[C@H]2C(=O)CC[C@@]3(O)[C@H]1C5`, the half-life is greater than 120 min.

As for `CC(C)CCn1c(CN2CCN(C(=O)C(C)C)CC2)nc2c1c(=O)n(C)c(=O)n2C`, the half-life stood at 70.7 min.

The compound `COc1cc(/C=N\NC(=O)c2ccc3c(c2)OCO3)ccc1OCc1ccccc1` returned a half-life of 23.5 min.

In turn, `COc1ccc(Cn2c(SCc3ccc(C(=O)NC4CCCC4)cc3)nc3ccncc32)cc1` gave a half-life of 14.5 min.

In the case of `CC(C)(C)NCC(O)COc1cccc2c1CCC(=O)N2` (stereo not given), the half-life is greater than 120 min.

In turn, `Nc1nc2ccccc2n1Cc1ccc(F)cc1` showed a half-life greater than 120 min.

`CCC[C@H](N[C@@H](C)C(=O)N1[C@H](C(=O)O)C[C@@H]2CCCC[C@@H]21)C(=O)OCC`: the half-life was greater than 120 min.

The compound `CCc1ccc(CNC(=O)c2sc3ncccc3c2-n2c(C)ccc2C)cc1` displayed a half-life of 1.9 min.

`C[C@@H]1O[C@@H](O[C@H]2C[C@@H](O)[C@]3(CO)[C@H]4[C@H](O)C[C@]5(C)[C@@H](C6=CC(=O)OC6)CC[C@]5(O)[C@@H]4CC[C@]3(O)C2)[C@H](O)[C@H](O)[C@H]1O`: the half-life was greater than 120 min.

Compound `Nc1ccc2cc3ccc(N)cc3nc2c1` had a half-life of 105 min.

Compound `CCCC(CCC)C(=O)Nc1ccn([C@@H]2O[C@H](CO)[C@@H](O)C2(F)F)c(=O)n1` registered a half-life greater than 120 min.

`CC(C)(C)NCC(O)COc1ccc(NC(=O)NC2CCCCC2)cc1` (stereo not given) yielded a half-life greater than 120 min.

In the case of `O=C(NCCN1CCN(c2cccc3c2OCCO3)CC1)c1ccc(F)cc1`, the half-life came to 34.2 min.

As to `CCOC(=O)c1ncn2c1CN(C)C(=O)c1c(I)cccc1-2`, the half-life was found to be 111 min.

Take `c1cc2c(c(N3CCNCC3)c1)OCCO2`: the half-life is greater than 120 min.

`CC1(C)OC[C@H](NC(=O)Nc2ccc(Br)cc2Br)[C@H](c2ccccc2)O1` gave a half-life of 1 min.

In turn, `CC(C)(C)C1CCC(CC2=C(O)c3ccccc3C(=O)C2=O)CC1` (stereo not given) returned a half-life greater than 120 min.

`CN(C)CCCO[C@H]1C([C@H](O)CO)O[C@@H]2OC(C)(C)O[C@@H]21` (stereo not given in full) registered a half-life of 78.9 min.

On to `CC(=O)[C@@]1(O)CC[C@H]2C3CCC4=CC(=O)CC[C@]4(C)C3CC[C@@]21C` (stereo not given in full), for which the half-life stood at 9.86 min.

In turn, `Cc1cc2c(F)c(Oc3ncnn4cc(OCC(C)OC(=O)C(C)N)c(C)c34)ccc2[nH]1` (stereo not given) yielded a half-life of 1.26 min.

Turning to `CCN(CC)C(=O)C(c1ccccc1)N1CCN(c2ccc(NC(=O)c3ccccc3-c3cccnc3)cc2F)CC1` (stereo not given), the half-life was 4.93 min.

As for `CN(C)c1nc(Cc2ccc(NC(=O)c3ccc4ccccc4c3)cc2)nc(Cl)c1CC(=O)O`, the half-life is greater than 120 min.

Compound `C=CCOC1=C(OCC(O)CNC(C)C)CCCC1` (stereo not given) came in with a half-life greater than 120 min.

As to `CCCc1ccc(OCC(=O)N2CCN(C(=O)COc3ccc(CCC)cc3OC)CC2)c(OC)c1`, the half-life was 2.8 min.

Compound `O=c1[nH]c2ccc(Cl)cc2c(N[C@@H]2CN3CCC2CC3)c1-c1nc2ccccc2[nH]1` returned a half-life of 18.8 min.

`O=C(NN1CCCC1)NS(=O)(=O)c1ccc(Cl)cc1` returned a half-life greater than 120 min.

`CCN1CCN(C(=O)c2cc(-c3ccccc3OC)c3nncn3n2)CC1` displayed a half-life of 54.7 min.

The compound `CCCCC(CC)CN=C(N)NC(N)=NCCCCCCN=C(N)NC(N)=NCC(CC)CCCC` (stereo not given) yielded a half-life greater than 120 min.

As for `CCN(CC)Cc1cccc(/C=C/c2nc3ccc(F)cc3c(=O)n2-c2ccccc2Cl)n1`, the half-life stood at 25.8 min.

For `CCC(C(=O)O)c1ccc(N2Cc3ccccc3C2=O)cc1` (stereo not given), the half-life is greater than 120 min.

`O=C(NOCC1CC1)c1ccc(F)c(F)c1Nc1ccc(I)cc1Cl` returned a half-life of 11.2 min.

Consider `COc1ccc(S(=O)(=O)Nc2cc(Cl)cc(Cl)c2OC)cc1N1CCNCC1`, for which the half-life was greater than 120 min.

As for `Clc1cccc(N2CCNCC2)c1`, the half-life turned out to be 39.8 min.

Regarding `C=CC(=O)Nc1ccc2ncnc(Nc3cccc(Br)c3)c2c1`, the half-life turned out to be 12.5 min.

For the compound `C=CC1=C(C(=O)O)N2C(=O)[C@@H](NC(=O)/C(=N\OCC(=O)O)c3csc(N)n3)[C@H]2SC1`, the half-life is greater than 120 min.

As to `Cc1ccc(-c2c(-c3nn(C)c4ncnc(N5CCC(N6CCCCC6)C5)c34)cnn2C)cc1` (stereo not given), the half-life is greater than 120 min.

As for `O=C(O)CCCc1ccccc1`, the half-life is greater than 120 min.

Regarding `CCCOC(C(=O)OC1CCN(C)CC1)(c1ccccc1)c1ccccc1`, the half-life turned out to be 11.3 min.

In turn, `O=C(C1CCCCC1)N1CC(=O)N2CCCc3ccccc3C2C1` (stereo not given) had a half-life of 20.8 min.

On to `CCOC(=O)C1(CCOc2ccccc2)CCN(Cc2ccc(O)c(Cl)c2)CC1`, for which the half-life was found to be 5.08 min.

The compound `O=C(NC1CCN(CCCCC2(C(=O)NCC(F)(F)F)c3ccccc3-c3ccccc32)CC1)c1ccccc1-c1ccc(C(F)(F)F)cc1` returned a half-life of 13.5 min.

As to `CC(C)(C)c1ccc(-c2nc3c(N4CCN(Cc5ccc6nccnc6c5)CC4)cccc3[nH]2)cc1`, the half-life is 20.5 min.

`Cc1ncc(CSSCc2cnc(C)c(O)c2CO)c(CO)c1O` registered a half-life greater than 120 min.

Compound `COc1cc2nc(Cl)nc(N)c2cc1OC` gave a half-life of 105 min.

Consider `CCOC(=O)[C@H](CCc1ccccc1)N[C@H]1CCc2ccccc2N(CC(=O)O)C1=O`, for which the half-life was 18.6 min.

The compound `COCCOc1nc(N)c2[nH]c(=O)n(Cc3ccc(C(=O)O)cc3)c2n1` gave a half-life greater than 120 min.

In turn, `O=C(Nc1ncc([N+](=O)[O-])s1)c1cccs1` gave a half-life of 29 min.

Compound `O=C(CCC1CCN(Cc2ccccc2)CC1)c1ccc2c(c1)NCCCC2` gave a half-life of 5.22 min.

In the case of `Cn1c(=O)cc(N2CCCC(N)C2)n(Cc2ccccc2C#N)c1=O` (stereo not given), the half-life was greater than 120 min.

Compound `C[C@@H](N)c1ccc(C(=O)Nc2ccnc3[nH]ccc23)cc1` gave a half-life greater than 120 min.

`CCOc1cc(=O)n2c(c1C(=O)Nc1ccc(S(N)(=O)=O)cc1)CCCC2` came in with a half-life greater than 120 min.

The compound `CC(C)(C)CC(=O)OCC(=O)[C@@]1(O)CC[C@H]2[C@@H]3CCC4=CC(=O)C=C[C@]4(C)[C@H]3[C@@H](O)C[C@@]21C` came in with a half-life of 2.13 min.

Consider `Cc1cc(C)cc(NC(=O)Cc2ccc(OC(C)(C)C(=O)O)cc2)c1`, for which the half-life is greater than 120 min.

Regarding `OCCN1CCN(CC/C=C2/c3ccccc3Sc3ccc(C(F)(F)F)cc32)CC1`, the half-life worked out at 48.4 min.

The compound `O=C(O)C1CN(Cc2ccc(-c3nc4cc(Cc5ccccc5F)ccc4s3)c(F)c2)C1` registered a half-life greater than 120 min.

Compound `COc1ccc(NC(=O)Cn2cc(C(=O)c3cccs3)c3ccccc32)cc1` gave a half-life of 16.6 min.

On to `Cc1cc(CN)cc(C)c1NC(=O)c1ccc(-c2cc(Cl)ccc2Cl)o1`, for which the half-life was greater than 120 min.

`CC(C)(C)Oc1ccc(OCC2Cc3ccccc3CN2C(=O)c2cccc3ccccc23)cc1` (stereo not given) returned a half-life of 5.19 min.

Turning to `C[C@H]1[C@H](/C=C/c2ccc(-c3ccccc3C#N)cn2)[C@@H]2[C@@H](C)OC(=O)[C@@H]2C[C@@H]1C`, the half-life is 15.3 min.

Compound `CC(=O)N1CCN([C@H]2CCN(C(=O)N(C)[C@H](C)c3cc(C(F)(F)F)cc(C(F)(F)F)c3)[C@@H](c3ccc(F)cc3C)C2)CC1` registered a half-life of 12.8 min.

For `Cc1ccc(S(=O)(=O)Nc2nc3n(n2)C(c2ccc(F)cc2)C=C(c2ccccc2)N3)cc1` (stereo not given), the half-life was greater than 120 min.

Compound `CCOP(=O)(OCC)Oc1cc(C)nc(C(C)C)n1` gave a half-life of 99.9 min.

With `Cc1noc(-c2ccc(-c3ccc(CC(=O)O)cc3)cc2)c1NC(=O)O[C@H](C)c1ccccc1Cl`, the half-life amounted to 29.7 min.

As for `CCNc1nc(Cl)nc(NCC)n1`, the half-life was 59.4 min.

As to `CC(C)(O)c1ccccc1CC[C@H](SCC1(CC(=O)O)CC1)c1cccc(/C=C/c2ccc3ccc(Cl)cc3n2)c1`, the half-life was determined as 36.5 min.

As to `CCOCCCNC(=O)CCC(=O)NNc1nc2ccccc2c2nc(-c3ccccc3)nn12`, the half-life was 88 min.

The compound `Cc1nc(C2CCCCC2)c(-c2ccc(S(N)(=O)=O)c(F)c2)o1` returned a half-life of 30.7 min.

The compound `CC[C@@H](C)Nc1cc(C(=O)NC2CC3CC[C@@H](C2)N3c2ccc(C(=O)C3CC3)cn2)c(C)cc1C(N)=O` (stereo not given in full) came in with a half-life greater than 120 min.

As to `CCCCN(CCCC)CCC(O)c1cc2c(Cl)cc(Cl)cc2c2cc(C(F)(F)F)ccc12` (stereo not given), the half-life was determined as 29.5 min.

`CC1(C)SCCN(S(=O)(=O)c2ccc(OCC#CCO)cc2)[C@@H]1C(=O)NO`: the half-life was greater than 120 min.

For the compound `CC(=O)OCC(=O)[C@@]1(O)CC[C@H]2[C@@H]3CCC4=CC(=O)C=C[C@]4(C)[C@@]3(F)[C@@H](O)C[C@@]21C`, the half-life was 87.5 min.

The compound `Cc1cccc(N2CCN(C(=O)c3cn(C4CCCCC4)c(=O)c4c3c3ccccc3n4C)CC2)c1C` displayed a half-life of 0.76 min.

The compound `COc1ccc(-c2ccn(CC[C@](C)(C(=O)NO)S(C)(=O)=O)c(=O)c2)c(F)c1` registered a half-life greater than 120 min.

`O=C(Cn1ncc2c([nH]c3ccccc32)c1=O)NCCCN1CCN(c2ccccc2)CC1` came in with a half-life greater than 120 min.

The compound `C/C(=N/NC(=O)c1ccncc1)C(=O)O` registered a half-life greater than 120 min.

For the compound `Nc1cc(=O)[nH]c(N)n1`, the half-life came to 99.2 min.

In turn, `CC1=C(C(=O)Nc2cccc(-c3ccn[nH]3)c2)C(c2ccccc2Cl)N=C(Nc2nc3ccccc3o2)N1` (stereo not given) returned a half-life of 71.5 min.

The compound `COc1cc(C(=O)N2CCCCCCC2)cc(OC)c1OC` showed a half-life of 29.3 min.

Take `CC1=C(C(=O)Nc2cccc(CN)c2)C(c2ccccc2Cl)N=C(Nc2nc3ccccc3o2)N1` (stereo not given): the half-life was greater than 120 min.

On to `C[C@@H]1CCC[C@H](C)N1CCCC(O)(c1ccccc1)c1ccccn1` (stereo not given in full), for which the half-life was greater than 120 min.

The compound `C[C@]12C=CC(=O)C=C1CCC1C3C[C@@H](O)[C@](O)(C(=O)CO)[C@@]3(C)C[C@H](O)[C@@]12F` (stereo not given in full) came in with a half-life greater than 120 min.

The compound `O=C(NCc1ccco1)c1ccc2c(c1)N(Cc1cccc(Cl)c1)C(=O)c1ccccc1S2=O` (stereo not given) yielded a half-life of 0.62 min.

The compound `CN1CCN(CCCN2c3ccccc3Sc3ccc(C(F)(F)F)cc32)CC1` came in with a half-life of 22.5 min.
